Experimental findings from article PMC4639830, “Inhibition of DYRK1A and GSK3B induces human β-cell proliferation” (Nature Communications, 2015) are described below.

One assay has as its target T1, GSK3beta (Homo sapiens, UniProt P49841).
T1 construct: purchased Ambit KINOMEscan
As to the kind of experiment: Kinase profiling. Particulars: Conc 1000 nM; read-out: Percent inhibition, GSK3beta. Type of assay: biochemical.

In another assay the test system is FAK2 (PTK2). As to the kind of experiment: Kinase profiling. Type of assay: biochemical, human. The source says:
(§1) ; Fig. 5a; Supplementary Table 1). We focused on Dyrk1a because other kinases inhibited by aminopyrazine compounds were not highly expressed in β-cells and because Dyrk1a was known to inhibit the NFAT pathway that was previously implicated in β-cell proliferation. We used molecular modelling to dock the aminopyrazine compounds into the published structure of Dyrk1a (protein databank accession code 2vx3.pdb; Fig. 5b).

In assay [1] the test system is human islets transplanted into STZ-treated NOD-SCID mice. Briefly: Transplantation of compound-treated human islets into STZ-treated NOD-SCID mice. Conditions: islets treated in vitro before transplantation. Type of assay: in vivo, mouse. An excerpt: Figure 2 AP compounds expand human islets ex vivo with retention of function after transplantation. […] (a) Immunofluorescence for insulin, Ki67 and DAPI on DMSO or GNF4877-treated human intact islets (scale bar, 50 μm). (b) Quantification of Ki67+ as a percent of total insulin+ cells (n=3). […] Data are shown as mean±s.d. (six mice per group; transplanted with islets from a single human donor). […] Data shown as mean±s.d.; (n=6 mice/group, *P<0.05, Student's t-test).
We tested whether aminopyrazine treatment of islets compromised their ability to secrete insulin in vitro and, after transplantation, in vivo.

Another assay deals with T2, Axl (Homo sapiens, UniProt P30530).
T2 construct: purchased Ambit KINOMEscan
T2 sequence (P30530 26-894): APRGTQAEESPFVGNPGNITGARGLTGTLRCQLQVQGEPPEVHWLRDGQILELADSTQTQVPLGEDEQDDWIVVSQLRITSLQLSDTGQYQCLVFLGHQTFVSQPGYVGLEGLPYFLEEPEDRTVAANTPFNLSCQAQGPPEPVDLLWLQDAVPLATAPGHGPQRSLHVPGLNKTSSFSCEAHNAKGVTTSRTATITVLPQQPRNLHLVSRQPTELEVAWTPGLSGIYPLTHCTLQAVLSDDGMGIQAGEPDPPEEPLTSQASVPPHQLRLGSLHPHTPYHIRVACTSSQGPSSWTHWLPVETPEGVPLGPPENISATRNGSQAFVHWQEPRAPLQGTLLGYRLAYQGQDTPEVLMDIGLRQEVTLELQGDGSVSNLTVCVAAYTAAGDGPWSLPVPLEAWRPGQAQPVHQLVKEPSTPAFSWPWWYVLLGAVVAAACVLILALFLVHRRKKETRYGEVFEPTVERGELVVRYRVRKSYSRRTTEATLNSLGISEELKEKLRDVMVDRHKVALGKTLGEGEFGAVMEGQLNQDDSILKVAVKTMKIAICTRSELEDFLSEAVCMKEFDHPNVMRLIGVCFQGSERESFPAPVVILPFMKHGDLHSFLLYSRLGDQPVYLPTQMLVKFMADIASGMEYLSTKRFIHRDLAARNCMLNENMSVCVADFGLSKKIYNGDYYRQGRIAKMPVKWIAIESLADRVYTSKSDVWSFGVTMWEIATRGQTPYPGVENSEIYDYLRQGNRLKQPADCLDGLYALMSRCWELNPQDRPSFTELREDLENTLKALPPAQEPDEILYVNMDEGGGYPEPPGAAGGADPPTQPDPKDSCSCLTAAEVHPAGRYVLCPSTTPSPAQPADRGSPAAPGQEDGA
As to the kind of experiment: Kinase profiling. Type of assay: biochemical. Conditions: read-out: Percent inhibition, Axl; for inhibition at 1 µM: Conc 1000 nM.
Excerpt: as §1

The next assay concerns the target T3, ALK (Homo sapiens, UniProt Q9UM73).
T3 construct: purchased Ambit KINOMEscan
Briefly: Kinase profiling. Type of assay: biochemical. Particulars: read-out: Percent inhibition, ALK; for inhibition at 1 µM: Conc 1000 nM.
Excerpt: as §1

The target in another assay is T4, NEK2 (Homo sapiens, UniProt P51955).
T4 construct: purchased Ambit (KINOMEscan)
As to the kind of experiment: Kinase profiling. Type of assay: biochemical. Particulars: Conc 1000 nM; read-out: Percent inhibition, NEK2.
Excerpt: as §1

The target in the next assay is T5, LCK (Homo sapiens, UniProt P06239).
T5 construct: purchased Ambit (KINOMEscan)
Briefly: Kinase profiling. Type of assay: biochemical. Particulars: Conc 1000 nM; read-out: Percent inhibition, LCK.
Excerpt: as §1

The target in the next assay is T6, PI3Ka (Homo sapiens, UniProt P42336).
T6 construct: purchased Ambit (KINOMEscan)
As to the kind of experiment: Kinase profiling. Type of assay: biochemical. Conditions: Conc 1000 nM; read-out: Percent inhibition, PI3Ka.
Excerpt: as §1

The next assay concerns the target T7, PDK1 (Homo sapiens, UniProt O15530).
T7 construct: purchased Ambit (KINOMEscan)
Briefly: Kinase profiling. Conditions: Conc 1000 nM; read-out: Percent inhibition, PDK1. Type of assay: biochemical.
Excerpt: as §1

T3 sequence (Q9UM73 19-1620): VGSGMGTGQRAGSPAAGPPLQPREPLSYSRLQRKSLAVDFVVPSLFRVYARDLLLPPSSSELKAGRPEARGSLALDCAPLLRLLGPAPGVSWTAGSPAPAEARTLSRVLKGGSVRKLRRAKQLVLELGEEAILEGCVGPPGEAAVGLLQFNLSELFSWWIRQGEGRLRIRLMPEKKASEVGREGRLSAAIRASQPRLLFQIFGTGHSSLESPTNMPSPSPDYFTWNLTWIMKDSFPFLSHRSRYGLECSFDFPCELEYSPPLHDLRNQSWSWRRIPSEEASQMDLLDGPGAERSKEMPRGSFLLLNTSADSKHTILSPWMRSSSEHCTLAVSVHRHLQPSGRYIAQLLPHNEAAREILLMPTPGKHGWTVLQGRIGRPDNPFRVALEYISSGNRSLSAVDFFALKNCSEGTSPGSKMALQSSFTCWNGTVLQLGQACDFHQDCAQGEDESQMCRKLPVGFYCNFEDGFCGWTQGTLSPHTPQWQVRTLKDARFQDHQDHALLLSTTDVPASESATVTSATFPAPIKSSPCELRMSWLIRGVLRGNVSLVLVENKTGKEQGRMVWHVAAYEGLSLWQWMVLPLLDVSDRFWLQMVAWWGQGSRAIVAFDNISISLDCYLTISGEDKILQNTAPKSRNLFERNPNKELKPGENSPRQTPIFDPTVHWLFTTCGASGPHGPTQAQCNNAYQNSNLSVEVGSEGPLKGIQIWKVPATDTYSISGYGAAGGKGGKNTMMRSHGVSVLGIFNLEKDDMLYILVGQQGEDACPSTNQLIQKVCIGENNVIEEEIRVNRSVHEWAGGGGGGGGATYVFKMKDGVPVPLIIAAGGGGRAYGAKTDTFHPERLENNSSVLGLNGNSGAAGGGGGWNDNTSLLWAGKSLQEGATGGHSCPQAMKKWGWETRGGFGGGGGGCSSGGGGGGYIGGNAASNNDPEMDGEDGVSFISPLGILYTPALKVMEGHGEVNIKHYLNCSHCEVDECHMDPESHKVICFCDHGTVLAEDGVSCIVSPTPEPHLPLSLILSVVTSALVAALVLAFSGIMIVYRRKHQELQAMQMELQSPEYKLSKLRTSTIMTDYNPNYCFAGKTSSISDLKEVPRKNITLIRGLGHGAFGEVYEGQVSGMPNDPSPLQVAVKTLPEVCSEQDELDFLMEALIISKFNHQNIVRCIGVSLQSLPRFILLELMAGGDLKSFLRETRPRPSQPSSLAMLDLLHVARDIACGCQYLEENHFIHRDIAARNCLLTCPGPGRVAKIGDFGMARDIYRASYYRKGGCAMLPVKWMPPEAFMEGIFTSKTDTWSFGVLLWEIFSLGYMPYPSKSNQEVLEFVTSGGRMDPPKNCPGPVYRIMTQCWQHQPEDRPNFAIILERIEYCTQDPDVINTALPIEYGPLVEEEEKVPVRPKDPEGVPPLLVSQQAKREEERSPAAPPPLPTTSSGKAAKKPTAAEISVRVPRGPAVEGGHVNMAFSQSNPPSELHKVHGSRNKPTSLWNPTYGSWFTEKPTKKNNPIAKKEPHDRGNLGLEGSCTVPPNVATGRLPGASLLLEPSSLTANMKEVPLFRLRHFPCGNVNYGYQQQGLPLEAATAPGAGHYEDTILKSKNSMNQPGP
T6 sequence (P42336 whole entry): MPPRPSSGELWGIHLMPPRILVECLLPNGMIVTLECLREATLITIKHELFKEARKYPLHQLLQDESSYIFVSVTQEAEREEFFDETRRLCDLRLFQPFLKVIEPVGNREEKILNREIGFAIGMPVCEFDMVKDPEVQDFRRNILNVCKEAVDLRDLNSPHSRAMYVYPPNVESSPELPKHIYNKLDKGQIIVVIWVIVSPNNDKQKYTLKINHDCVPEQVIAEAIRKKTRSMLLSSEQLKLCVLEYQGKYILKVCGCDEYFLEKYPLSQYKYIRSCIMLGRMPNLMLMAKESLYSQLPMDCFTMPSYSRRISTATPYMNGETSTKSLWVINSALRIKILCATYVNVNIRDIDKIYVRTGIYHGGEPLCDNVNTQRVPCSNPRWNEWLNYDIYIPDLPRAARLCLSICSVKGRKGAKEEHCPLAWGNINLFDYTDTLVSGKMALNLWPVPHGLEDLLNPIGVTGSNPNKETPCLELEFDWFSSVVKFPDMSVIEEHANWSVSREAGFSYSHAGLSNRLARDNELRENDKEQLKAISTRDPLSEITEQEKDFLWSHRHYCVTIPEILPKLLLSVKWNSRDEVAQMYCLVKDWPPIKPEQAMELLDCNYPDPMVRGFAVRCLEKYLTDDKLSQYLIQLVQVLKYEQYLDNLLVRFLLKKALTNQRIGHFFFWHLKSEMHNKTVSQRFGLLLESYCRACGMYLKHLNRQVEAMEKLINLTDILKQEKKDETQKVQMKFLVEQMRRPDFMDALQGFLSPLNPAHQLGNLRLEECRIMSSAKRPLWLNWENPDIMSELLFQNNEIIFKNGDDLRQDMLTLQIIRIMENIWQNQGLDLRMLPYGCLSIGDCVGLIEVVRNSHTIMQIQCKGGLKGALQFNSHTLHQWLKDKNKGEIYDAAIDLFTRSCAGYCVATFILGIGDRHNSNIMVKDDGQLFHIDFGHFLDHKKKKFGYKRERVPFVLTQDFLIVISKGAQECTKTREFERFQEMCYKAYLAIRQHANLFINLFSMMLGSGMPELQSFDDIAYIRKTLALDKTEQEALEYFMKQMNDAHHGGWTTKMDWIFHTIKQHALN
T6 sequence (P27986 whole entry partner): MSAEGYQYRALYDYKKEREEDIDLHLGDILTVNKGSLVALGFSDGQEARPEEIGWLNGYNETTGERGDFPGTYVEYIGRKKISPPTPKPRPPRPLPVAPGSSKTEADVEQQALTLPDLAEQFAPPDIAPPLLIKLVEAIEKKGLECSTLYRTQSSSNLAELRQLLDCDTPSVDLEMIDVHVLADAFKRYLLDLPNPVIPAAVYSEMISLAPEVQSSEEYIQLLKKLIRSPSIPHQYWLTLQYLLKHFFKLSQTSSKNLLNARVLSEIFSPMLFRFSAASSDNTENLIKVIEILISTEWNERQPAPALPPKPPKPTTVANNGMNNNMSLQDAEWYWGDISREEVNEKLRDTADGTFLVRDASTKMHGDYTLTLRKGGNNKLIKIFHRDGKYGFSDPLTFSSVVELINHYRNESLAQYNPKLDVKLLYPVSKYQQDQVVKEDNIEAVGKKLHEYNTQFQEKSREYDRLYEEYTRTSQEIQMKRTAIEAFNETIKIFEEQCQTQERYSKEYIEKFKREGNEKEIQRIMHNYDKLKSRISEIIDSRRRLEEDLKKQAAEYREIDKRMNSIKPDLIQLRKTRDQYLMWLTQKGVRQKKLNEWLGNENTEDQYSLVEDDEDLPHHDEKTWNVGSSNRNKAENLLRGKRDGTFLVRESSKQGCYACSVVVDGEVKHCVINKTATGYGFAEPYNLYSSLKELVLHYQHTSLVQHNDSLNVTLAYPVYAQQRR
T5 sequence (P06239 whole entry): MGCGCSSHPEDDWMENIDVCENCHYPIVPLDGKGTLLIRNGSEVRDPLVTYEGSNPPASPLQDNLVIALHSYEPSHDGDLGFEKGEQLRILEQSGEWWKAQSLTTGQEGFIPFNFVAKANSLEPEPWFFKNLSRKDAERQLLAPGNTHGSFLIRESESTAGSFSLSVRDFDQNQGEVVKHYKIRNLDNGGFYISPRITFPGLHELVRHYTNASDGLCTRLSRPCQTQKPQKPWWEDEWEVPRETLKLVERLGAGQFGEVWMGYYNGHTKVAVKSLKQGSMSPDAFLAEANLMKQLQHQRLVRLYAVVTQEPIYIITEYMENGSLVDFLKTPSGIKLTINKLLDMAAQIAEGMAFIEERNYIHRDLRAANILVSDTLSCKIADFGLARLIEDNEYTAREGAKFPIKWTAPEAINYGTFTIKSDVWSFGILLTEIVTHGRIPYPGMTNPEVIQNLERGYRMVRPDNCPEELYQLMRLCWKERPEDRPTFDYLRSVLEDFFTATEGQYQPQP
T7 sequence (O15530 whole entry): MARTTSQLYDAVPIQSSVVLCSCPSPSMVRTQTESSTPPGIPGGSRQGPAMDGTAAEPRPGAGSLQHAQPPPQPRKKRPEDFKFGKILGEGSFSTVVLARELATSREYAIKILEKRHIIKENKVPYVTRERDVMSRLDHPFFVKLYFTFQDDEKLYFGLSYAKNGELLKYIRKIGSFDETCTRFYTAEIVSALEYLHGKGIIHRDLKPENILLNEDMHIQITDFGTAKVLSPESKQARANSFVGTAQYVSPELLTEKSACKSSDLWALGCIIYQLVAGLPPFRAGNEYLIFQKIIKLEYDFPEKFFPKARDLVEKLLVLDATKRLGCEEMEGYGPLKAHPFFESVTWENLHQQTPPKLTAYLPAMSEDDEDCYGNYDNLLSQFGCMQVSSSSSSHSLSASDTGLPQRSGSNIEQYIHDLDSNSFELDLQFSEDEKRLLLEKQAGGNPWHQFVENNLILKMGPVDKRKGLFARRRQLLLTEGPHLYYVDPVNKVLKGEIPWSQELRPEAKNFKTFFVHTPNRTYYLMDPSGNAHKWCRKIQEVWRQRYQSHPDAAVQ
T4 sequence (P51955 whole entry): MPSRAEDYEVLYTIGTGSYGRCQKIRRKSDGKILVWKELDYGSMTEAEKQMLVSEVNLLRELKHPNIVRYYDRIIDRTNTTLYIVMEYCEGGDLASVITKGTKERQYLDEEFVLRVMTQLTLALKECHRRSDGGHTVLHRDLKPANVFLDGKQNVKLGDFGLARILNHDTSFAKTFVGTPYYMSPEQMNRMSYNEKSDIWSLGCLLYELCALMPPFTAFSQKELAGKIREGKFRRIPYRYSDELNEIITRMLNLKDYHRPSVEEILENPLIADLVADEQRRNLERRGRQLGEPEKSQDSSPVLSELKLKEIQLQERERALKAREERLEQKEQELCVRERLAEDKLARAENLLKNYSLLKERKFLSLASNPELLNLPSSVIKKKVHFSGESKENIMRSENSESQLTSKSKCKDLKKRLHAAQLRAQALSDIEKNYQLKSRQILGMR

As to `Nc1ncc(-c2ccccc2)nc1C(=O)Nc1cnccc1N1CCC(C(=O)O)CC1` [GNF7156], the inhibition at 1 µM at GSK3beta turned out to be 99%; on Axl, 88%; at ALK it was 71%; on NEK2, 3%; at LCK, 31%; on PI3Ka, 2%. Also, the inhibition at 1 µM on PDK1 was found to be 43%. Besides, the “Percent inhibition, FAK2 (PTK2)” value with FAK2 (PTK2) (Conc 1000 nM) is 92%. Moreover, the “euglycemia after transplantation of treated islets” value in assay [1] is on record as “maintained the ability to preserve euglycemia”.

As to `CC(C)Oc1ccc(F)c(-c2cnc(N)c(C(=O)Nc3cnccc3N3CCC[C@@H](C(=O)O)C3)n2)c1` [GNF4877], the “Percent inhibition, FAK2 (PTK2)” value in the assay on FAK2 (PTK2) (Conc 200 nM) came to 9%; with FAK2 (PTK2) (Conc 1000 nM), 70%. In addition, the figures for the inhibition at 0.2 µM at Axl (Conc 200 nM) and at ALK (Conc 200 nM) were 74% and 35%, respectively. The inhibition at 1 µM on Axl was 94%; on ALK, 96%; on NEK2, 0%; at LCK it was 43%; on PI3Ka, 31%; on PDK1, 45%.
